{
  "source": "patent US20260364215A1",
  "about": "“Radiopharmaceutical Compositions Targeting Ephrin Type-A Receptor 2 and Uses Thereof” (PeptiDream Inc., priority 2022, published 2026)",
  "note": "pKd: −log10 of the molar value. Numbered stars: 1 amine (or outer) side, 2 acyl side, 3 side chain; on linkers, the order of the positions; unused ones are H or OH. Bridge positions count the residues as written; N and C are the ends. Square brackets hold non-standard residues; d marks the D form. Side chains are listed from the residue outwards. Peptide text beside a SMILES is read from it. * marks the point of attachment. DOTA(Lu) = O=C1CN2CCN3CCN(CC(=O)*)CCN(CC2)CC(=O)[O][Lu]([O]1)[O]C(=O)C3; NH(1-deoxy-D-glucityl) = OC[C@@H](O)[C@@H](O)[C@H](O)[C@@H](O)CN*; X4 = CC(C)(C)C[C@H](CNCCCC[C@H](N[*:1])C(=O)[*:2])N[*:3]; DOTA = O=C(O)CN1CCN(CC(=O)O)CCN(CC(=O)*)CCN(CC(=O)O)CC1; Trp(1-Me,7-Cl) = Cn1cc(C[C@H](N)C(=O)O)c2cccc(Cl)c21; dPhe(3-CONH2) = NC(=O)c1cccc(C[C@@H](N)C(=O)O)c1; Piperazinyl(4-CH2COOH) = O=C(O)CN1CCN(*)CC1; Trp(1-Me) = Cn1cc(C[C@H](N)C(=O)O)c2ccccc21; NMe3Pal = CN[C@@H](Cc1cccnc1)C(=O)O; NMeF = CN[C@@H](Cc1ccccc1)C(=O)O; hCit = NC(=O)NCCCC[C@H](N)C(=O)O; Gly(cBu) = N[C@H](C(=O)O)C1CCC1; NMeE = CN[C@@H](CCC(=O)O)C(=O)O; Aad = N[C@@H](CCCC(=O)O)C(=O)O; NMeN = CN[C@@H](CC(N)=O)C(=O)O; CO = O=C([*:1])[*:2]",
  "data": [
    {"target": "T1, Recombinant Human EphA2 Fc Protein (Homo sapiens, UniProt P29317)", "T1 construct": "purchased Elabscience", "T1 sequence (P29317 24-534 limits assumed)": "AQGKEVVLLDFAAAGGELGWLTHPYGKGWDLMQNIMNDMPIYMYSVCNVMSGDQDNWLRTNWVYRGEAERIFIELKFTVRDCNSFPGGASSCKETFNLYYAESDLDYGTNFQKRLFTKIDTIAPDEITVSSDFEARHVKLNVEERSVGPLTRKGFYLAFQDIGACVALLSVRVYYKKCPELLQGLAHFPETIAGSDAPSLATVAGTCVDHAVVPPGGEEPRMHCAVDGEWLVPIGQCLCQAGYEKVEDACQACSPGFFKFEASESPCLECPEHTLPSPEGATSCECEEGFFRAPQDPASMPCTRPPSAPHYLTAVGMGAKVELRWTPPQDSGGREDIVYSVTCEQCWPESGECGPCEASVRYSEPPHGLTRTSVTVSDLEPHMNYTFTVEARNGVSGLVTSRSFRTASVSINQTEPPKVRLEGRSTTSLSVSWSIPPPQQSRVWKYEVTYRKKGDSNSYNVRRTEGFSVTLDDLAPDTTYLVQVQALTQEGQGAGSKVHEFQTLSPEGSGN", "assay": "Interaction analysis (kinetics, KD) of peptides and conjugates against EphA2 by SPR, Biacore T200, single-cycle kinetics (Examples B15 and B22)", "assay_type": "binding", "conditions": "not given", "experimental": "(§1) Example B15. Interaction Analysis by SPR was Performed Using Biacore (Cytiva)\n(§2) SPR assay was performed using Biacore T200 (Cytiva).\n(§3) The HBS-P+ buffer (10 mM HEPES (pH7.4), 150 mM NaCl, 0.05% (v/v) Surfactant P20) containing 1% DMSO was used as running buffer. Recombinant Human EphA2 Fc Protein (Fc tag, Elabscience) was captured by Human Antibody Capture kit (Cytiva). Peptide samples in DMSO were diluted with running buffer, and prepared five serial dilutions. Using these serial dilutions, kinetics of peptides against EphA2 was measured at a flow rate of […] at 25 °C. The method adopted for sample measurement was a single-cycle kinetics method. The analysis was conducted using the evaluation software 3.0 provided with Biacore T200. Kinetics fitting was done on the difference data obtained by subtracting the baseline data from sample measurement data. KD values were calculated based on the association rate constant (ka) and dissociation rate constant (kd).\n(§4) Example B22: Interaction Analysis of Conjugates by SPR was Performed Using Biacore (Cytiva)\n(§5) SPR assay was performed using Biacore T200 (Cytiva) according to Example B15.", "values": [
      {"smiles": "C[C@H]1NC(=O)CSC[C@@H](C(=O)N[C@H](CCCCNC(=O)CN2CCN3CCN4CCN(CC2)CC(=O)[O][Lu]([O]C(=O)C3)[O]C(=O)C4)C(N)=O)NC(=O)[C@H](CCCC(N)=O)NC(=O)[C@H]([C@@H](C)O)NC(=O)[C@H](Cc2cn(C)c3ccccc23)NC(=O)[C@H](CCC(=O)NC[C@H](O)[C@@H](O)[C@H](O)[C@H](O)CO)NC(=O)[C@H](Cc2cn(C)c3ccccc23)NC(=O)[C@H](Cc2cccnc2)N(C)C(=O)[C@H](CCCC(N)=O)NC(=O)[C@H](C2CCC2)NC(=O)[C@H](CC(N)=O)NC(=O)[C@H](Cc2ccccc2)N(C)C1=O", "note": "[PDC_EphA2-00013704-C302] ({CH2CO}-[dA][NMeF]N[Gly(cBu)][Aad](NH2)[NMe3Pal][Trp(1-Me)]E(NH(1-deoxy-D-glucityl))[Trp(1-Me)]T[Aad](NH2)C[dK](DOTA(Lu))-NH2; thioether N-12)", "pKd": "> 9.00"},
      {"smiles": "CC(C)C[C@@H]1NC(=O)[C@H](CC(N)=O)NC(=O)[C@H](Cc2cccnc2)N(C)C(=O)[C@@H](C)NC(=O)CSC[C@@H](C(N)=O)NC(=O)[C@H](CCCC(N)=O)NC(=O)[C@H]([C@@H](C)O)NC(=O)[C@H](Cc2cn(C)c3ccccc23)NC(=O)[C@H](CCCCNC(=O)N2CCN(CC(=O)O)CC2)NC(=O)[C@H](Cc2cn(C)c3c(Cl)cccc23)NC(=O)[C@H](CCC(=O)O)N(C)C(=O)[C@H](CCCCNC(=O)CN2CCN3CCN4CCN(CC2)CC(=O)[O][Lu]([O]C(=O)C3)[O]C(=O)C4)NC1=O", "note": "[PDC_EphA2-00026631] ({CH2CO}-[dA][NMe3Pal]NLK(DOTA(Lu))[NMeE][Trp(1-Me,7-Cl)]K([CO-Piperazinyl(4-CH2COOH)])[Trp(1-Me)]T[Aad](NH2)C-NH2; thioether N-12)", "pKd": "> 9.00"},
      {"smiles": "C[C@H]1NC(=O)CSC[C@@H](C(N)=O)NC(=O)[C@H](CCCCNC[C@@H](CC(C)(C)C)NC(=O)CN2CCN3CCN4CCN(CC2)CC(=O)[O][Lu]([O]C(=O)C3)[O]C(=O)C4)NC(=O)[C@H]([C@@H](C)O)NC(=O)[C@H](Cc2cn(C)c3ccccc23)NC(=O)[C@H](CCCCNC(=O)N2CCN(CC(=O)O)CC2)NC(=O)[C@H](Cc2cn(C)c3ccccc23)NC(=O)[C@H](CCC(=O)O)N(C)C(=O)[C@H](CCCC(N)=O)NC(=O)[C@H](C2CCC2)NC(=O)[C@H](CC(N)=O)NC(=O)[C@H](Cc2cccnc2)N(C)C1=O", "note": "[PDC_EphA2-00027131] ({CH2CO}-[dA][NMe3Pal]N[Gly(cBu)][Aad](NH2)[NMeE][Trp(1-Me)]K([CO-Piperazinyl(4-CH2COOH)])[Trp(1-Me)]T[X4](DOTA(Lu))C-NH2; thioether N-12)", "pKd": "> 9.00"},
      {"smiles": "CC(C)C[C@@H]1NC(=O)[C@H](CC(N)=O)NC(=O)[C@H](Cc2cccnc2)N(C)C(=O)[C@@H](Cc2cccc(C(N)=O)c2)NC(=O)CSC[C@@H](C(=O)N[C@@H](CCCCNC(=O)CN2CCN3CCN4CCN(CC2)CC(=O)[O][Lu]([O]C(=O)C3)[O]C(=O)C4)C(N)=O)NC(=O)[C@H](Cc2cn(C)c3ccccc23)NC(=O)[C@H](CCCCNC(N)=O)NC(=O)[C@H](Cc2cn(C)c3c(Cl)cccc23)NC(=O)[C@H](Cc2ccccc2)N(C)C(=O)[C@H](CO)NC1=O", "note": "[PDC_EphA2-00026600-C301] ({CH2CO}-[dPhe(3-CONH2)][NMe3Pal]NLS[NMeF][Trp(1-Me,7-Cl)][hCit][Trp(1-Me)]CK(DOTA(Lu))-NH2; thioether N-10)", "pKd": "> 9.00"},
      {"smiles": "CN1C(=O)[C@H](CO)NC(=O)[C@H](C2CCC2)NC(=O)[C@H](CC(N)=O)NC(=O)[C@H](Cc2cccnc2)N(C)C(=O)[C@@H](Cc2cccc(C(N)=O)c2)NC(=O)CSC[C@@H](C(=O)N[C@@H](CCCCNC(=O)CN2CCN3CCN4CCN(CC2)CC(=O)[O][Lu]([O]C(=O)C3)[O]C(=O)C4)C(N)=O)NC(=O)[C@H](Cc2cn(C)c3ccccc23)NC(=O)[C@H](CCCCNC(N)=O)NC(=O)[C@H](Cc2cn(C)c3c(Cl)cccc23)NC(=O)[C@@H]1Cc1cccnc1", "note": "[PDC_EphA2-00026602-C301] ({CH2CO}-[dPhe(3-CONH2)][NMe3Pal]N[Gly(cBu)]S[NMe3Pal][Trp(1-Me,7-Cl)][hCit][Trp(1-Me)]CK(DOTA(Lu))-NH2; thioether N-10)", "pKd": "> 9.00"}
    ]},
    {"target": "T1, Recombinant Human EphA2 Fc Protein", "assay": "Interaction analysis (kinetics, KD) of peptides and conjugates against EphA2 by SPR, Biacore T200, single-cycle kinetics (Examples B15 and B22)", "assay_type": "binding", "conditions": "conjugates, Biacore T200 according to Example B15, Table B16; read-out: SPR Kd", "experimental": "as §1, §2, §3, §4, §5", "values": [
      {"smiles": "C[C@@H](O)[C@@H]1NC(=O)[C@H](Cc2cn(C)c3ccccc23)NC(=O)[C@H](CCC(=O)NC[C@H](O)[C@@H](O)[C@H](O)[C@H](O)CO)NC(=O)[C@H](Cc2cn(C)c3c(Cl)cccc23)NC(=O)[C@H](Cc2cccnc2)N(C)C(=O)[C@H](CCCC(N)=O)NC(=O)[C@H](C2CCC2)NC(=O)[C@H](CC(N)=O)NC(=O)[C@H](Cc2cccnc2)N(C)C(=O)[C@@H](Cc2cccc(C(N)=O)c2)NC(=O)CSC[C@@H](C(=O)N[C@H](CCCCNC(=O)CN2CCN(CC(=O)O)CCN(CC(=O)O)CCN(CC(=O)O)CC2)C(=O)O)NC(=O)[C@H](CCCC(N)=O)NC1=O.[Lu+3]", "note": "[PDC_EphA2-00026774] ({CH2CO}-[dPhe(3-CONH2)][NMe3Pal]N[Gly(cBu)][Aad](NH2)[NMe3Pal][Trp(1-Me,7-Cl)]E(NH(1-deoxy-D-glucityl))[Trp(1-Me)]T[Aad](NH2)C[dK](DOTA)-OH; thioether N-12)", "pKd": "> 9.00"},
      {"smiles": "C[C@@H](O)[C@@H]1NC(=O)[C@H](Cc2cn(C)c3ccccc23)NC(=O)[C@H](CCC(=O)NC[C@H](O)[C@@H](O)[C@H](O)[C@H](O)CO)NC(=O)[C@H](Cc2cn(C)c3c(Cl)cccc23)NC(=O)[C@H](Cc2cccnc2)N(C)C(=O)[C@H](CCCC(N)=O)NC(=O)[C@H](C2CCC2)NC(=O)[C@H](CC(N)=O)NC(=O)[C@H](Cc2cccnc2)N(C)C(=O)[C@@H](Cc2cccc(C(N)=O)c2)NC(=O)CSC[C@@H](C(=O)N[C@H](CCCCNC(=O)CN2CCN(CC(=O)O)CCN(CC(=O)O)CCN(CC(=O)O)CC2)C(N)=O)NC(=O)[C@H](CCCC(N)=O)NC1=O.[Lu+3]", "note": "[PDC_EphA2-00019437-C302] ({CH2CO}-[dPhe(3-CONH2)][NMe3Pal]N[Gly(cBu)][Aad](NH2)[NMe3Pal][Trp(1-Me,7-Cl)]E(NH(1-deoxy-D-glucityl))[Trp(1-Me)]T[Aad](NH2)C[dK](DOTA)-NH2; thioether N-12)", "pKd": "> 9.00"},
      {"smiles": "C[C@H]1NC(=O)CSC[C@@H](C(=O)N[C@H](CCCCNC(=O)CN2CCN(CC(=O)O)CCN(CC(=O)O)CCN(CC(=O)O)CC2)C(N)=O)NC(=O)[C@H](CCCC(N)=O)NC(=O)[C@H]([C@@H](C)O)NC(=O)[C@H](Cc2cn(C)c3ccccc23)NC(=O)[C@H](CCC(=O)NC[C@H](O)[C@@H](O)[C@H](O)[C@H](O)CO)NC(=O)[C@H](Cc2cn(C)c3ccccc23)NC(=O)[C@H](CC(N)=O)N(C)C(=O)[C@H](CCCC(N)=O)NC(=O)[C@H](C2CCC2)NC(=O)[C@H](CC(N)=O)NC(=O)[C@H](Cc2ccccc2)N(C)C1=O.[Lu+3]", "note": "[PDC_EphA2-00013703-C302] ({CH2CO}-[dA][NMeF]N[Gly(cBu)][Aad](NH2)[NMeN][Trp(1-Me)]E(NH(1-deoxy-D-glucityl))[Trp(1-Me)]T[Aad](NH2)C[dK](DOTA)-NH2; thioether N-12)", "pKd": "> 9.00"}
    ]}
  ]
}
